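Step 1: Grow cells in 96-well plates. Step 2: Expose to compound for 48 hours at 5 concentrations. Step 3: Interpolate endpoints linearly; if unreached, use highest concentration. TGI: concentration producing complete growth inhibition.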
What was measured:
Assay in all cases: inhibition of tumour cell growth, NCI panel, 48 h
[1] = tested on: UACC-62 melanoma
[2] = tested on: CCRF-CEM leukemia
[3] = tested on: MALME-3M melanoma
[4] = tested on: HL-60(TB) leukemia
[5] = tested on: MDA-N
[6] = tested on: HS 578T breast
[7] = tested on: OVCAR-4 ovarian
[8] = tested on: MDA-MB-435
[9] = tested on: OVCAR-8 ovarian
[10] = tested on: COLO 205 colon
[11] = tested on: UO-31 renal

Row | SMILES | TGI [1] | TGI [2] | TGI [3] | TGI [4] | TGI [5] | TGI [6] | TGI [7] | TGI [8] | TGI [9] | TGI [10] | TGI [11]
1 | O=C(CCc1ccccc1)On1c(-c2ccccc2)nc2ccccc2c1=S | 36.9 µM | > 100 µM | 22.6 µM | > 100 µM | > 100 µM | > 100 µM | > 100 µM | > 100 µM | 64.6 µM | > 100 µM | 39.3 µM
2 | O=C(Nc1ccccc1)c1cc(S(=O)(=O)N2CCNNC2=O)c(S)cc1Cl | > 100 µM | > 100 µM | > 100 µM | > 100 µM | > 100 µM | > 100 µM | > 100 µM | > 100 µM | > 100 µM | > 100 µM | > 100 µM
3 | COc1ccc(/C=C/C2=NN(c3cccc(S(=O)(=O)O)c3)C3(C2)SCC(=O)N3c2nc3ccccc3s2)cc1 (configuration not stated) | > 100 µM | 77.5 µM | > 100 µM | > 100 µM | > 100 µM | > 100 µM | > 100 µM | > 100 µM | > 100 µM | > 100 µM | > 100 µM
4 | N#C[C@H](c1nc2ccccc2s1)c1nc2ccccc2nc1Cl | 31.4 µM | > 100 µM | > 100 µM | > 100 µM | > 100 µM | > 100 µM | 34.1 µM | > 100 µM | > 100 µM | > 100 µM | 52 µM
5 | O=C1C(CN2CCOCC2)CCCC1CN1CCOCC1 (configuration not stated) | 14.5 µM | 4.03 µM | 2.04 µM | 1.78 µM | 16.1 µM | 75.9 µM | 5.44 µM | 27.5 µM | 9.31 µM | 6.21 µM | 18.9 µM
6 | COc1ccc(C(C2=C(O)COC2=O)c2cc3c(cc2O)OCO3)cc1OC (configuration not stated) | > 100 µM | > 100 µM | > 100 µM | > 100 µM | > 100 µM | > 100 µM | > 100 µM | > 100 µM | > 100 µM | > 100 µM | > 100 µM
7 | COc1ccccc1C[C@@H]1OC2(C=CC(=O)C=C2)O[C@H]1Cc1ccccc1OC | 23.2 µM | 8.6 µM | 21.3 µM | 29.8 µM | 21.7 µM | 29.3 µM | 19.9 µM | 38.2 µM | 3.46 µM | 14.9 µM | 12.7 µM
8 | COc1ccc(/C=N/n2cnc3[nH]c(C)c(Cc4ccccc4)c3c2=N)cc1 | > 100 µM | > 100 µM | > 100 µM | > 100 µM | > 100 µM | > 100 µM | > 100 µM | > 100 µM | > 100 µM | > 100 µM | > 100 µM
9 | O=C1c2cn[nH]c2C(c2ccccc2)N1c1ccccc1 (configuration not stated) | > 10 µM | > 10 µM | > 10 µM | > 10 µM | > 10 µM | > 10 µM | > 10 µM | > 10 µM | > 10 µM | > 10 µM | > 10 µM
10 | CSc1c(C(=O)Nc2ccc(Cl)cc2)c(N)n(N)c(=O)c1C#N | > 100 µM | > 100 µM | > 100 µM | > 100 µM | > 100 µM | > 100 µM | > 100 µM | > 100 µM | > 100 µM | > 100 µM | > 100 µM
11 | Cc1ccc2c(c1)C(=O)C(C1OC(=O)c3ccccc31)C2 (configuration not stated) | > 100 µM | > 100 µM | > 100 µM | > 100 µM | > 100 µM | > 100 µM | > 100 µM | > 100 µM | > 100 µM | > 100 µM | > 100 µM
12 | CCOc1cc(NC(C)=O)ccc1C(=O)NN1C(=O)CSC1c1ccccc1 (configuration not stated) | > 100 µM | > 100 µM | > 100 µM | > 100 µM | > 100 µM | > 100 µM | > 100 µM | > 100 µM | > 100 µM | > 100 µM | > 100 µM

Source: PubChem BioAssay (NCI)
